# Compound: CC(C)N(CCCNC(=O)Nc1ccc(C(C)(C)C)cc1)C[C@H]1O[C@@H](n2ccc3c(N)ncnc32)[C@H](O)[C@@H]1O + CC(C)C[C@H](NC(=O)[C@H](Cc1ccccc1)NC(=O)c1cnccn1)B(O)O [Bortezomib] (partner 0.002 µM)
# Test: relative viability (nuclei count vs DMSO), 5 days (fraction); higher = more cells survive
# Settings: first compound 0.08 µM
# Outline: (§1)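 Nuclei were stained with Hoechst during a one-step fixation (final 0.05% Triton X-100, 1% formaldehyde, 1 ug/ml Hoechst) carried out 5 days after dosing, then counted on 4× images. The cells, lung cancer lines in 1536-well plates, had been dosed by pin tool the day after seeding with one drug alone or a fixed anchor-drug dose plus five library-drug doses (not always all listed) in √10 steps. Relative viability is the nuclei count in treated wells divided by that in vehicle wells, and each value is the median of duplicate plates.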
row,Cell Line,relative viability
1,NCI-H3122,1.02
2,HOP-62,0.599
3,LU99A,1.12
4,BEN,0.934
5,HARA,1.13
6,HCC-78,0.488
7,LCLC-97TM1,0.681
8,NCI-H2023,0.89
9,A-427,0.927
10,NCI-H460,0.967
11,NCI-H838,0.755
12,NCI-H1734,0.701
13,NCI-H596,0.997
14,NCI-H2405,0.986
15,201T,1.08
16,NCI-H1915,0.911
17,HCC-827,1.08
18,LXF-289,1
19,NCI-H2347,1.14
20,NCI-H661,0.63
21,CAL-12T,1.04
22,NCI-H1651,0.958
23,EPLC-272H,0.871
24,NCI-H23,0.837
25,NCI-H1355,1.15
26,NCI-H322M,1.11
27,NCI-H1437,0.526

# Same assay, conditions: first compound 0.253 µM
row,Cell Line,relative viability
1,NCI-H3122,0.994
2,HOP-62,0.854
3,LU99A,0.831
4,BEN,0.762
5,HARA,1.15
6,NCI-H441,0.488
7,LCLC-97TM1,0.686
8,NCI-H2023,0.451
9,A-427,0.973
10,NCI-H460,1.3
11,NCI-H838,0.372
12,NCI-H1734,0.921
13,NCI-H596,0.843
14,NCI-H2405,0.989
15,201T,1.11
16,NCI-H1915,0.972
17,HCC-827,0.969
18,LXF-289,0.993
19,NCI-H2347,0.871
20,NCI-H661,0.753
21,CAL-12T,0.739
22,NCI-H1651,0.957
23,EPLC-272H,0.819
24,NCI-H1355,1.2
25,NCI-H322M,1.13
26,NCI-H1437,0.417

# Same assay, conditions: first compound 0.8 µM
row,Cell Line,relative viability
1,NCI-H3122,1.04
2,HOP-62,0.132
3,LU99A,1.38
4,BEN,0.776
5,HARA,0.604
6,HCC-78,0.213
7,NCI-H441,0.144
8,LCLC-97TM1,0.493
9,NCI-H2023,0.872
10,A-427,0.996
11,NCI-H460,1.2
12,NCI-H838,0.626
13,NCI-H1734,0.355
14,NCI-H596,0.746
15,NCI-H2405,0.918
16,201T,1.03
17,NCI-H1915,0.622
18,HCC-827,0.668
19,LXF-289,0.719
20,NCI-H2347,0.534
21,NCI-H661,0.625
22,CAL-12T,0.907
23,NCI-H1651,0.967
24,EPLC-272H,0.397
25,NCI-H23,0.523
26,NCI-H322M,1.12
27,NCI-H1437,0.309

# Same assay, conditions: first compound 2.53 µM
row,Cell Line,relative viability
1,NCI-H3122,1.03
2,HOP-62,0.605
3,LU99A,1.16
4,BEN,0.662
5,HARA,1.03
6,HCC-78,0.305
7,NCI-H441,0.875
8,LCLC-97TM1,0.422
9,NCI-H2023,1.09
10,A-427,1.01
11,NCI-H460,1.15
12,NCI-H838,0.672
13,NCI-H1734,0.973
14,NCI-H596,1.05
15,NCI-H2405,0.994
16,201T,1.07
17,NCI-H1915,0.894
18,HCC-827,1.02
19,LXF-289,1.03
20,NCI-H2347,0.924
21,NCI-H661,0.747
22,CAL-12T,0.847
23,NCI-H1651,0.943
24,EPLC-272H,0.923
25,NCI-H23,0.94
26,NCI-H1355,1.22
27,NCI-H322M,1.39
28,NCI-H1437,0.423

# Same assay, conditions: first compound 8 µM
row,Cell Line,relative viability
1,NCI-H3122,0.978
2,HOP-62,0.361
3,LU99A,1.2
4,BEN,0.57
5,HARA,1.02
6,HCC-78,0.577
7,NCI-H441,0.819
8,LCLC-97TM1,0.631
9,NCI-H2023,0.821
10,A-427,0.967
11,NCI-H460,1.13
12,NCI-H838,0.788
13,NCI-H1734,0.847
14,NCI-H596,1.2
15,NCI-H2405,0.819
16,201T,1.06
17,NCI-H1915,0.935
18,HCC-827,0.993
19,LXF-289,0.98
20,NCI-H2347,1
21,NCI-H661,0.719
22,CAL-12T,0.784
23,NCI-H1651,0.944
24,EPLC-272H,0.942
25,NCI-H23,1.17
26,NCI-H1355,1.08
27,NCI-H322M,1.38
28,NCI-H1437,0.536

# Compound: CC(C)=CC[C@@H](O)C1=CC(=O)c2c(O)ccc(O)c2C1=O [Shikonin] + Nc1nc2[nH]cc(CCc3ccc(C(=O)N[C@@H](CCC(=O)O)C(=O)O)cc3)c2c(=O)[nH]1 [Pemetrexed] (partner 0.2 µM)
# Test: as above
# Settings: first compound 0.01 µM
# Outline: as §1
row,Cell Line,relative viability
1,NCI-H3122,0.215
2,HOP-62,0.432
3,LU99A,0.174
4,BEN,0.765
5,HARA,0.265
6,HCC-78,0.91
7,NCI-H441,0.282
8,LCLC-97TM1,0.123
9,NCI-H2023,0.239
10,A-427,1.02
11,NCI-H460,0.0561
12,NCI-H838,0.234
13,NCI-H1734,0.413
14,NCI-H596,0.502
15,NCI-H2405,1.05
16,201T,0.346
17,NCI-H1915,0.442
18,HCC-827,0.23
19,LXF-289,0.892
20,NCI-H2347,0.471
21,NCI-H661,0.944
22,CAL-12T,1.28
23,NCI-H1651,0.631
24,EPLC-272H,0.264
25,NCI-H23,0.662
26,NCI-H1355,1.13
27,NCI-H322M,0.575
28,NCI-H1437,0.332

# Same assay, conditions: first compound 0.1 µM
row,Cell Line,relative viability
1,NCI-H3122,0.219
2,HOP-62,0.353
3,LU99A,0.206
4,BEN,0.856
5,HARA,0.306
6,HCC-78,0.844
7,NCI-H441,0.223
8,LCLC-97TM1,0.162
9,NCI-H2023,0.235
10,A-427,1.04
11,NCI-H460,0.0603
12,NCI-H838,0.24
13,NCI-H1734,0.479
14,NCI-H596,0.536
15,NCI-H2405,1.31
16,201T,0.382
17,NCI-H1915,0.684
18,HCC-827,0.283
19,LXF-289,0.959
20,NCI-H2347,0.479
21,NCI-H661,1.02
22,CAL-12T,1.41
23,NCI-H1651,0.748
24,EPLC-272H,0.314
25,NCI-H23,0.832
26,NCI-H1355,1.15
27,NCI-H322M,0.591
28,NCI-H1437,0.37

# Same assay, conditions: first compound 0.3162 µM
row,Cell Line,relative viability
1,NCI-H3122,0.209
2,HOP-62,0.349
3,LU99A,0.191
4,BEN,0.78
5,HARA,0.255
6,HCC-78,0.941
7,NCI-H441,0.252
8,LCLC-97TM1,0.155
9,NCI-H2023,0.221
10,A-427,1.01
11,NCI-H460,0.06
12,NCI-H838,0.243
13,NCI-H1734,0.434
14,NCI-H596,0.414
15,NCI-H2405,1.06
16,201T,0.368
17,NCI-H1915,0.517
18,HCC-827,0.234
19,LXF-289,0.955
20,NCI-H2347,0.402
21,NCI-H661,0.957
22,CAL-12T,1.09
23,NCI-H1651,0.606
24,EPLC-272H,0.334
25,NCI-H23,0.704
26,NCI-H1355,1.02
27,NCI-H322M,0.6
28,NCI-H1437,0.291

# Same assay, conditions: first compound 1 µM
row,Cell Line,relative viability
1,NCI-H3122,0.209
2,HOP-62,0.278
3,LU99A,0.199
4,BEN,0.87
5,HARA,0.24
6,HCC-78,0.893
7,NCI-H441,0.266
8,LCLC-97TM1,0.16
9,NCI-H2023,0.262
10,A-427,1.24
11,NCI-H460,0.063
12,NCI-H838,0.258
13,NCI-H1734,0.382
14,NCI-H596,0.475
15,NCI-H2405,1.13
16,201T,0.307
17,NCI-H1915,0.449
18,HCC-827,0.259
19,LXF-289,0.945
20,NCI-H2347,0.44
21,NCI-H661,0.729
22,CAL-12T,1.24
23,NCI-H1651,0.652
24,EPLC-272H,0.297
25,NCI-H23,0.766
26,NCI-H1355,1.06
27,NCI-H322M,0.777
28,NCI-H1437,0.354

# Compound: CC(C)N(CCCNC(=O)Nc1ccc(C(C)(C)C)cc1)C[C@H]1O[C@@H](n2ccc3c(N)ncnc32)[C@H](O)[C@@H]1O + O=C(CCCCCCC(=O)Nc1ccccc1)NO [Vorinostat] (partner 1 µM)
# Test: as above
# Settings: first compound 0.08 µM
# Outline: as §1
row,Cell Line,relative viability
1,NCI-H3122,0.957
2,HOP-62,0.711
3,LU99A,0.454
4,BEN,0.597
5,HARA,0.559
6,HCC-78,0.41
7,NCI-H441,0.811
8,LCLC-97TM1,0.893
9,NCI-H2023,0.605
10,A-427,0.839
11,NCI-H460,0.719
12,NCI-H838,0.683
13,NCI-H1734,0.773

# Source: the supplement of paper PMC10307832
